According to ChEMBL document CHEMBL1208699, “BACE-1 hydroxyethylamine inhibitors using novel edge-to-face interaction with Arg-296” (Bioorg Med Chem Lett, 2010):

Experiments:
Type in all cases: ADME, organism-based
Design in all cases: dose 1 mg/kg, route intravenous
[1] = Half life in rat at 1 mg/kg, iv; details: in vivo
[2] = Blood clearance in rat at 1 mg/kg, iv; details: whole blood
[3] = Volume of distribution at steady state in rat at 1 mg/kg, iv; details: in vivo, read-out: Vdss

- half-life [1]: 42 min
- clearance [2]: 76 mL/min/kg
- Vd [3]: 9.3 L/kg
SMILES: CS(=O)(=O)N(c1ccccc1)c1cc(C(=O)N[C@@H](Cc2ccccc2)[C@H](O)CNCc2cccc(C(F)(F)F)c2)cc(C2CCCC2)c1
